Measured values taken from PMC12481569, “Novltex: A New Class of Antibiotics with Potent Activity against Multidrug-Resistant Bacterial Pathogens–Design, Synthesis, and Biological Evaluation” (Journal of Medicinal Chemistry, 2025).
In brackets after ≈: the same amount, converted by molar mass. Positions of bridges follow the written chain, without caps; N, C: chain ends. Non-standard residues stand in square brackets, D forms with d. Residues, ends and D or L forms follow the SMILES beside them. dCha = N[C@H](CC1CCCCC1)C(=O)O

What was measured:
[1] = Lipid II binding, spot-on-lawn assays on S. aureus ATCC 33591; parameters: species or system Staphylococcus aureus; details: overnight 37 °C
Text: 6 Spot-on-lawn assays to evaluate binding of Lipid II with analogue 12 on S. aureus ATCC 33591. (A) Analogue 12 was premixed with increasing ratios of lipid II (0.5 to 4 equiv) and spotted onto a seeded lawn of S. aureus 33591. Lipid II and analogue 12 were also spotted independently. The position of the analogue 12–lipid II mixture is marked in red. (B) Daptomycin was used as a negative control. Asterisks denote the positions of analogue 12 (black), lipid II (blue), and daptomycin (green) additions.
Analogue 12 was premixed with increasing ratios of lipid II (0.5 to 4 equiv) for 10 min prior to spotting onto agar plates seeded with a lawn of S. aureus ATCC 33591 and incubated overnight.
XII. Lipid II binding determination of analogue 12
Previously reported methods were used to determine the lipid II binding of analogue 126,7. The lipid II used in this study was prepared by chemical synthesis and its preparation and purification has been […]
A: An overnight culture of S. aureus ATCC 33591 was added to LB agar (45 °C) at a final concentration of 0.1% (vol/vol) and pour-plated into 90 mm petri dishes. Binding of 12 to purified lipid II was assessed using a spot-on-lawn assay. Premixed solutions (5 µL) containing analogue 12 (8 µg) with varying concentration of lipid II were spotted onto the agar, alongside individual controls of 12 and lipid II.
After drying, plates were incubated overnight at 37 °C. This assay was performed in duplicates.
B: To assess the interaction between analogue 12 and lipid II, a culture of S. aureus ATCC 33591 was grown overnight in LB broth and inoculated into LB agar at a final concentration of 1% (v/v) at 45°C.
This mixture was evenly distributed into 90mm petri dishes. Antibiotic inhibition haloes were previously determined by spotting analogue 12 and daptomycin (5 μL,8 µg/mL) onto agar plates and measuring the diameter of the halo after overnight incubation at 37 °C . The binding affinity of analogue 12 and lipid II was later examined by applying purified lipid II (300 μM, 2 μL) to the edge of the antibiotic halo. Analogue 12 and Daptomycin were applied to the inoculated agar plate at a spaced distance, once the antimicrobial solution drops had dried, lipid II was spotted on the edge of the inhibition halo. The plates were then incubated overnight at 37 °C. […]

MRSA ATCC 33591 [2] = experiment: microbe, parasite or virus in culture; format: cell-based, Staphylococcus aureus; details: Table 2; MHB with 0.002% polysorbate 80, 37 °C, 24 h, two independent duplicates
Experimental: (§1) MICs were performed as previously reported 4. For MIC testing all peptides were dissolved in DMSO.
(§2) Bacterial cultures were grown overnight on Mueller-Hinton Agar (MHA) plates and adjusted to a final inoculum of 10^5 – 10^6 CFU/mL. 100 µl of ino culum in Meuller -Hinton broth (MHB) was mixed with equal volume of peptides (dissolved in MHB) at 2x their concentration in a 96 well plate . For daptomycin MIC determination, the same protocol was followed with the addition of 50 mg/L calcium chloride to the medium. MIC values were determined in the media contain ing polysorbate 80 (0.002%, v/v) to prevent non -specific adsorption of the peptides to plastic surfaces. The final peptides concentrations ranged from 0.0625 – 32 µg/mL. The 96 well plates were then incubated at 37 °C for 24 h. All the experiments were performed in two independent duplicates and the MIC was determined as the lowest concentration in which no visible growth was observed. […]

[3] = tested on: Multidrug-Resistant (MDR) E. faecium; experiment: microbe, parasite or virus in culture
Experimental: (§3) We further evaluated analogue 12 against multidrug-resistant (MDR) strains of S. aureus (acquired from the NARSA collection) and MDR E. faecium (acquired from International Health Management Associates, IHMA, Europe Sarl), comparing its activity to various classes of clinically used antibiotics (Table ).
as §1
(§4) Bacterial cultures were grown overnight on Mueller-Hinton Agar (MHA) plates and adjusted to a final inoculum of 10^5 – 10^6 CFU/mL. 100 µl of ino culum in Meuller -Hinton broth (MHB) was mixed with equal volume of peptides (dissolved in MHB) at 2x their concentration in a 96 well plate . For daptomycin MIC determination, the same protocol was followed with the addition of 50 mg/L calcium chloride to the medium. MIC values were determined in the media contain ing polysorbate 80 (0.002%, v/v) to prevent non -specific adsorption of the peptides to plastic surfaces. The final peptides concentrations ranged from 0.0625 – 32 µg/mL. The 96 well plates were then incubated at 37 °C for 24 h. All the experiments were performed in two independent duplicates and the MIC was determined as the lowest concentration in which no visible growth was observed.
(§5) Antibiotics MIC break points ( µg/mL)
(§6) Table. S4: Susceptibility cut-off values (MIC breakpoints) for various clinical antibiotics. […]

[4] = tested on: Multidrug-Resistant (MDR) S. aureus; experiment: microbe, parasite or virus in culture; details: MHB, 0.002% polysorbate 80, 37 °C, 24 h, daptomycin with 50 mg/L calcium chloride
Experimental: as §3, §1, §4, §5, §6

MRSA ATCC 33591 [5] = experiment: Resistance study on agar; format: cell-based, Staphylococcus aureus; details: 10× MIC on agar, 24 h, 37 °C
Experimental: as §1
Bacterial cultures were grown overnight on Mueller-Hinton Agar (MHA) plates and adjusted to a final inoculum of 10^5 – 10^6 CFU/mL. 100 µl of ino culum in Meuller -Hinton broth (MHB) was mixed with equal volume of peptides (dissolved in MHB) at 2x their concentration in a 96 well plate . […]
MIC values were determined in the media contain ing polysorbate 80 (0.002%, v/v) to prevent non -specific adsorption of the peptides to plastic surfaces. The final peptides concentrations ranged from 0.0625 – 32 µg/mL. The 96 well plates were then incubated at 37 °C for 24 h. All the experiments were performed in two independent duplicates and the MIC was determined as the lowest concentration in which no visible growth was observed. […]
VIII. Time dependent killing of bacteria and resistance studies by analogue 12 […]
Resistance evaluations were conducted following previously described protocols 5. […]

[6] = tested on: MDR clinical strains of S. aureus and E. faecium; format: cell-based, Staphylococcus aureus; Enterococcus faecium; details: range over 4 S. aureus and 3 E. faecium strains
Experimental: as §1, §2

Structure (SMILES): CC(C)C[C@@H]1NC(=O)[C@H](C)NC(=O)[C@H](NC(=O)[C@H](CO)NC(=O)[C@@H](CCCCN)NC(=O)[C@@H](CC2CCCCC2)NC(=O)[C@@H](N)Cc2ccccc2)[C@H](C)OC(=O)[C@H](CC(C)C)NC1=O [analogue 12, Leu2Cha–Novltex] (H-F[dCha][dK]S[dT]ALL; ester 5-C)
- zone of inhibition, spot-on-lawn ([1]; absence of lipid II, 8 µg spotted, duplicates): clear and substantial zone of inhibition
- zone of inhibition, spot-on-lawn, premixed with lipid II ([1]; lipid II 1:1 ratio, premixed 10 min): antimicrobial activity was completely abolished
- halo distortion on addition of lipid II ([1]; lipid II (300 μM, 2 μL) at the edge of the antibiotic halo, duplicates): formed a noncircular spot
- zone of inhibition, spot-on-lawn, premixed with lipid II ([1]; lipid II ratio 0.5, premixed 10 min): only a faint zone remained
- MIC against MRSA ATCC 33591 (MRSA ATCC 33591 [2]): 0.25 µg/mL (≈ 0.273 µM)
- MIC, Enterococcus faecium 1563254 ([3]; MDR clinical isolate 1563254, MHB, 0.002% polysorbate 80, 37 °C, 24 h, daptomycin with 50 mg/L calcium chloride): 0.25 µg/mL (≈ 0.273 µM)
- MIC, Enterococcus faecium 1581582 ([3]; MDR clinical isolate 1581582, MHB, 0.002% polysorbate 80, 37 °C, 24 h, daptomycin with 50 mg/L calcium chloride): 0.5 µg/mL (≈ 0.547 µM)
- MIC, Enterococcus faecium 1766686 ([3]; MDR clinical isolate 1766686, MHB, 0.002% polysorbate 80, 37 °C, 24 h, daptomycin with 50 mg/L calcium chloride): 0.125 µg/mL (≈ 0.137 µM)
- MIC range against MDR E. faecium strains ([3]; range over the three clinical isolates): 0.125 to 0.5 µg/mL
- MIC, Staphylococcus aureus NR 45914 ([4]; MDR strain NR 45914): 0.125 µg/mL (≈ 0.137 µM)
- MIC, Staphylococcus aureus NR 45926 ([4]; MDR strain NR 45926): 0.125 µg/mL (≈ 0.137 µM)
- MIC, Staphylococcus aureus NR 45930 ([4]; MDR strain NR 45930): 0.125 µg/mL (≈ 0.137 µM)
- MIC, Staphylococcus aureus NR 46062 ([4]; MDR strain NR 46062): 0.063 µg/mL (≈ 0.0689 µM)
- emergence of resistant mutants (MRSA ATCC 33591 [5]): No resistant MRSA ATCC 33591 mutants emerged
- MIC against both groups of MDR clinical strains [6]: 0.063 to 0.5 µg/mL
